Data set [1] has as its system H460. The data set is described as follows: Apoptosis assay (Annexin V-FITC/PI flow cytometry), H460. The format is cell-based, Human. The following applies: 48 h. How it is done:
Further, the effects of 9e and 9p on the apoptosis of tumor cells were studied to get details of the suppression of cell proliferation caused by these compounds. PC-9 and H460 cells treated with different concentrations of 9e or 9p were stained with Annexin V-FITC and PI, and the numbers of apoptosis cells were analyzed by the flow cytometry.
PC-9 and H460 cells were cultured in 6-well plates with a density of 3 × 10^5 cells/well. Different concentrations of 9e or 9p were added to cells for 48 h respectively. The concentrations were 0, 2, 4, and 8 µM for PC-9 cells and 0, 4, 8 and 16 µM for H460 cells. After treatment, Annexin V-FITC Apoptosis Detection Kit was used to determine the apoptotic ratio and FlowJo software v10 was used to analyze of the results.
On the technique in general: In flow cytometry, cells or beads pass a laser one at a time.

Data set [2] concerns HRM (Human Renal Mesangial) cell line. The data set is described as follows: CCK8 cell viability assay, HRM normal cells (toxicity control). Type of data set: cell-based. The settings on record: for IC50: HRM normal human cells, 48 h, CCK8, mean ± SE. How it is done:
Based on these preliminary results, compounds 9c, 9e, 9f, 9i, 9k, 9 L, 9p, 9q, 9t, 9u, 9v, 9w, 10c, 10e which were effective to most of the cell lines were chosen for the measurement of the half-maximal inhibitory concentration (IC50). […] HRM (Human Renal Mesangial) cell line was used as a control to study the toxicity of these compounds against normal human cells.
(§1) CCK8 assay was used to measure cell viability. Cells with a density of 1 × 10^4 cells/well were seeded on the 96-well plates. After adhesion, cells were treated with different diluted compounds or vehicle control DMSO and continue cultured for 48 h. Then, CCK8 reagent was added for one hour incubation at 37 °C with 5% of CO2. Absorbance was measured using a microplate spectrophotometer (Thermo) at 450 nm. The ratio of cell viability of control was taken as 100%. […] Then IC50 of the compounds were investigated using the prism statistical software.

For data set [3], the system named is PC-9. In words: LIVE/DEAD staining, PC-9. Type of data set: cell-based, Human. The settings on record: PC-9, 5, 10 or 20 µM, 24 h. Here is the method: LIVE/DEAD staining experiments were carried out to evaluate the anti-proliferative activity of dolutegravir derivatives 9e and 9p against PC-9 and H460 cell lines. The tumor cells were treated with 5 µM, 10 µM or 20 µM of 9e and 9p for 24 h. The live and dead cells were photographed and counted.
PC-9 and H460 cells with a density of 5 × 10^3 cells/well were seeded on the 96-well plates. Then different concentrations (0, 5 µM, 10 µM, 20 µM) of 9e or 9p were treated for 24 h. Cells were then stained with the LIVE/DEAD Assay Kit, observed and photographed using the fluorescent microscope.

Data set [4] concerns Caspase3. In words: Western blot of Caspase3 in PC-9 cells. Type of data set: cell-based, Human. The settings on record: PC-9, 0, 2, 4, 8 µM, 48 h. The text has this:
(§2) To determine the role of compounds 9e and 9p on regulating the development of cell proliferation, expressions of key proteins which were involved in cell growth progresses such as autophagy, apoptosis, cell cycle and DNA damage were examined. Ubiquitin like molecule light chain 3 (LC3) is a key marker of autophagy. […] Caspase3, which is one of the key proteins in regulating apoptosis, however, was not changed in tumor cells after treated with 9e or 9p. Cell cycle regulation proteins such as CyclinD, CyclinE or β-catenin were also not affected when PC-9 was treated with 9e or 9p. Further, H2AX variant histone (γ-H2AX), which was responsible for DNA damage, was also not affected when PC-9 were treated with 9e or 9p.
(§3) Protein expression levels were measured by western blot. PC-9 cells were cultured in 12-well plates and different concentrations (0, 2, 4, 8µM) of 9e and 9p were added for 48 h. Proteins were extracted from whole cells using radioimmunoprecipitation assay (RIPA). Buffer containing protease/phosphatase inhibitor cocktail (CST). Sodium dodecyl sulfate (10-15%) polyacrylamide gel electrophoresis and nitrocellulose membranes (Millipore) were used to separate and collect proteins. Antibodies used include, LC3 (3868s, CST), Caspase3 (9662, CST), cyclin D (2922s, CST), cyclin E (20808s, CST), γ-H2AX (9718s, CST), and β-actin (4967s, CST).

Data set [5] relates to β-catenin. In words: Western blot of β-catenin in PC-9 cells. The settings on record: PC-9, 0, 2, 4, 8 µM, 48 h. Type of data set: cell-based, Human.
From the text: as §2, §3
A general note: In western blotting, separated proteins are transferred to a membrane and probed.

Data set [6] deals with γ-H2AX. In words: Western blot of γ-H2AX in PC-9 cells. The format is cell-based, Human. The settings on record: PC-9, 0, 2, 4, 8 µM, 48 h.
From the text: as §2, §3

For data set [7], the system named is A549. In words: CCK8 cell viability assay, A549. Type of data set: cell-based, Human. The following applies: for Cell viability (100%): A549, 20 µM, 48 h, CCK8, control = 100%; for IC50: A549, 48 h, CCK8, mean ± SE. How it is done:
as §1, with “At first, CCK8 assay was carried out to evaluate the anti-proliferative activity of dolutegravir-1,2,3-triazole derivatives against different cancer cell lines. The results of cell viability of three lung cancer cell lines A549, PC-9 and H460 in the presence of compounds 9 and 10 are summarized in Table 2. Cells were treated with different compounds at the concentration of 20 µM for 48 h. […] Human lung cancer cell lines A549, PC-9 and H460 were all obtained from ATCC. Cells were cultured in DMEM or RPMI 1640 medium containing 10% FBS and 1% penicillin/streptomycin at 37 °C with a 5% CO2-humidified atmosphere. CCK8 assay” for “CCK8 assay”
On the technique in general: Tetrazolium assays rely on reduction of a dye to a coloured formazan, in cell work by metabolically active cells.

In data set [8] the test system is PC-9. The data set is described as follows: CCK8 cell viability assay, PC-9. The format is cell-based, Human. The settings on record: for Cell viability (100%): PC9, 20 µM, 48 h, CCK8, control = 100%; for IC50: PC9, 48 h, CCK8, mean ± SE. Here is the method: as §1, with “At first, CCK8 assay was carried out to evaluate the anti-proliferative activity of dolutegravir-1,2,3-triazole derivatives against different cancer cell lines. The results of cell viability of three lung cancer cell lines A549, PC-9 and H460 in the presence of compounds 9 and 10 are summarized in Table 2. Cells were treated with different compounds at the concentration of 20 µM for 48 h. […] Human lung cancer cell lines A549, PC-9 and H460 were all obtained from ATCC. Cells were cultured in DMEM or RPMI 1640 medium containing 10% FBS and 1% penicillin/streptomycin at 37 °C with a 5% CO2-humidified atmosphere. CCK8 assay” for “CCK8 assay”

The test system of data set [9] is LC3. In words: Western blot of LC3 in PC-9 cells. Type of data set: cell-based, Human. The following applies: PC-9, 0, 2, 4, 8 µM, 48 h.
From the text: as §2, §3

Data set [10] deals with CyclinD. In words: Western blot of CyclinD in PC-9 cells. The format is cell-based, Human. The settings on record: PC-9, 0, 2, 4, 8 µM, 48 h.
From the text: as §2, §3

Where only a bound is given, the exact number is not on record here.

Regarding `COc1c2n(cc(C(=O)Nc3cccc(-c4cn(-c5cccc([N+](=O)[O-])c5C)nn4)c3)c1=O)C[C@@H]1OCC[C@@H](C)N1C2=O` [Compound 9e], the cell apoptosis result in data set [1] (H460, 8 µM and 16 µM) is reported as “significant increased apoptosis”. Besides, in data set [2] (HRM cells), the “toxicity against normal cells” value is “low toxicity against normal cells”. The IC50 in [2] was more than 50 µM. Also, in data set [3], the “number of live cells” value is “decreased significantly in a dose dependent manner” and the “ratio of dead/live cells” value is recorded as “increased significantly with the increase of concentration”. The Caspase3 expression result in data set [4] is recorded as “not changed”. Besides, in data set [5], the β-catenin expression entry is recorded as “not affected”. For the same compound, the γ-H2AX expression entry in [6] is listed as “not affected”. For the same compound, in [7], the “Cell viability (100%)” value was determined as 9.14% and the midpoint of inhibition, the IC50, lay at 8.72 ± 0.11 µM. Also, in [8], the “Cell viability (100%)” value stood at 24.05% and half-maximal inhibition (IC50) was put at 3.83 ± 0.73 µM. Besides, the “expression of LC3” value in data set [9] is given as “significantly increased”. Besides, the CyclinD expression entry in data set [10] is on record as “not affected”.

For `COc1c2n(cc(C(=O)Nc3cccc(-c4cn(-c5cccc(C(F)(F)F)c5)nn4)c3)c1=O)C[C@@H]1OCC[C@@H](C)N1C2=O` [Compound 9p], the cell apoptosis entry in [1] (H460, 4 µM, 8 µM and 16 µM) was “significantly increased apoptosis”. In data set [2], the IC50 came to 35.6 ± 10.8 µM. In data set [3], the “number of live cells” value is “decreased with the increase of concentration” and the “ratio of dead/live cells” value is listed as “increased compared with untreated group but not completely in a dose dependent manner”. Moreover, in data set [4], the Caspase3 expression entry was “not changed”. In data set [5], the β-catenin expression entry is reported as “not affected”. Also, the γ-H2AX expression result in [6] was “not affected”. In data set [7], the “Cell viability (100%)” value was determined as 10.85% and the IC50 turned out to be 13 ± 0.32 µM. For the same compound, in data set [8], the “Cell viability (100%)” value is on record as 2.11% and the IC50 worked out at 3.17 ± 0.18 µM. Also, in [9], the “expression of LC3” value was “significantly increased”. Besides, in data set [10], the CyclinD expression entry is “not affected”.

What is called IC50 is the concentration needed to halve the response being measured. Lower therefore signals greater potency.

(Values after article PMC11077815, “Synthesis and antitumor activity of dolutegravir derivatives bearing 1,2,3-triazole moieties” (BMC Chemistry, 2024).)
